Laboratory results published in patent US9302999B2, “Substituted triazoles as herbicides” (E. I. DU PONT DE NEMOURS AND COMPANY, priority 2012, dated 2016).

Experiments:
Type in all cases: in vivo
[1] = test system: barnyardgrass (Echinochloa crus-galli); test: Test A pre-/postemergence: barnyardgrass
In short: (§1)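 Seeds were sown in loam/sand blend and sprayed preemergence (directed soil spray) and, simultaneously, postemergence at 2–10 cm, one- to two-leaf stage, using compounds in non-phytotoxic solvent with surfactant. After ~10 days in greenhouse, injury was rated visually versus untreated controls, 0 (no effect) to 100 (complete control).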

[2] = test system: crabgrass, large (large crabgrass, Digitaria sanguinalis); test: Test A pre-/postemergence: crabgrass, large
In short: as §1

[3] = test system: foxtail, giant (giant foxtail, Setaria faberii); test: Test A pre-/postemergence: foxtail, giant
In short: as §1

[4] = test system: morningglory (Ipomoea spp.); test: Test A pre-/postemergence: morningglory
In short: as §1

[5] = test system: pigweed (Amaranthus retroflexus); test: Test A pre-/postemergence: pigweed
In short: as §1

[6] = test system: velvetleaf (Abutilon theophrasti); test: Test A pre-/postemergence: velvetleaf
In short: as §1

[7] = test system: wheat (Triticum aestivum); test: Test A pre-/postemergence: wheat
In short: as §1

corn (Zea mays) = test: Test A pre-/postemergence: corn
In short: as §1

rice (Oryza sativa) = test: Test C flooded paddy test: rice; conditions: scale 0 to 100 (0 no effect, 100 complete control)
In short: (§2)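 Rating: visual, 0–100 (100 = complete control), versus untreated controls after 13 to 15 greenhouse days. Treatment went into paddy water held at 3 cm over the soil, on plants grown to two leaves.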

[8] = test system: sedge, umbrella (small-flower umbrella sedge, Cyperus difformis); test: Test C flooded paddy test: sedge, umbrella; conditions: scale 0 to 100 (0 no effect, 100 complete control)
In short: as §2

[9] = test system: ducksalad (Heteranthera limosa); test: Test C flooded paddy test: ducksalad; conditions: scale 0 to 100 (0 no effect, 100 complete control)
In short: as §2

[10] = test system: barnyardgrass (Echinochloa crus-galli); test: Test C flooded paddy test: barnyardgrass; conditions: scale 0 to 100 (0 no effect, 100 complete control)
In short: as §2

[11] = Postemergence, 125 g ai/ha, 0 to 100 scale, 0 is no effect, 100 is complete control
[12] = Postemergence, 500 g ai/ha, visual rating on 0 to 100 scale (0 no effect, 100 complete control), approximately ten days
[13] = Preemergence, 125 g ai/ha, 0 to 100 scale (0 no effect, 100 complete control)
[14] = Preemergence, 500 g ai/ha, 0 to 100 scale, 0 is no effect, 100 is complete control
[15] = Flood (flooded paddy test), 62 g ai/ha, visual rating after 13 to 15 days
[16] = Flood (flooded paddy test), 125 g ai/ha, visual rating after 13 to 15 days
[17] = Flood (flooded paddy test), 250 g ai/ha, visual rating after 13 to 15 days
[18] = Postemergence, 1000 g ai/ha, visual rating on 0 to 100 scale (0 no effect, 100 complete control), approximately ten days
[19] = Preemergence, 1000 g ai/ha, 0 to 100 scale, 0 is no effect, 100 is complete control

Cc1nn(-c2ccnc(C(F)(F)F)c2)nc1C(=O)c1cccc(C(F)(F)F)c1 [Compound 49]
Barnyardgrass plant response rating [1, 11]: 10 | Barnyardgrass plant response rating [1, 12]: 20 | Plant response rating, Barnyardgrass [1, 13]: 10 | Plant response rating, Barnyardgrass [1, 14]: 30 | Crabgrass, Large plant response rating [2, 11]: 60 | Crabgrass, Large plant response rating [2, 12]: 90 | Plant response rating, Crabgrass, Large [2, 13]: 80 | Plant response rating, Crabgrass, Large [2, 14]: 100 | Foxtail, Giant plant response rating [3, 11]: 30 | Foxtail, Giant plant response rating [3, 12]: 60 | Plant response rating, Foxtail, Giant [3, 13]: 80 | Plant response rating, Foxtail, Giant [3, 14]: 100 | Morningglory plant response rating [4, 11]: 20 | Morningglory plant response rating [4, 12]: 50 | Plant response rating, Morningglory [4, 13]: 0 | Plant response rating, Morningglory [4, 14]: 10 | Pigweed plant response rating [5, 11]: 80 | Pigweed plant response rating [5, 12]: 100 | Plant response rating, Pigweed [5, 13]: 60 | Plant response rating, Pigweed [5, 14]: 100 | Velvetleaf plant response rating [6, 11]: 30 | Velvetleaf plant response rating [6, 12]: 60 | Plant response rating, Velvetleaf [6, 13]: 0 | Plant response rating, Velvetleaf [6, 14]: 10 | Wheat plant response rating [7, 11]: 10 | Wheat plant response rating [7, 12]: 20 | Plant response rating, Wheat [7, 13]: 10 | Plant response rating, Wheat [7, 14]: 20 | Corn plant response rating (corn (Zea mays); [11]): 10 | Corn plant response rating (corn (Zea mays); [12]): 20 | Plant response rating, Corn (corn (Zea mays); [13]): 0 | Plant response rating, Corn (corn (Zea mays); [14]): 10 | Plant response rating, Rice (rice (Oryza sativa); [15]): 0 | Plant response rating, Rice (rice (Oryza sativa); [16]): 0 | Plant response rating, Rice (rice (Oryza sativa); [17]): 0 | Plant response rating, Rice (rice (Oryza sativa); Flood, 31 g ai/ha): 0 | Plant response rating, Sedge, Umbrella [8, 15]: 0 | Plant response rating, Sedge, Umbrella [8, 16]: 70 | Plant response rating, Sedge, Umbrella [8, 17]: 75 | Plant response rating, Sedge, Umbrella ([8]; Flood, 31 g ai/ha): 0 | Plant response rating, Ducksalad [9, 15]: 0 | Plant response rating, Ducksalad [9, 16]: 30 | Plant response rating, Ducksalad [9, 17]: 40 | Plant response rating, Ducksalad ([9]; Flood, 31 g ai/ha): 0 | Plant response rating, Barnyardgrass [10, 15]: 0 | Plant response rating, Barnyardgrass [10, 16]: 10 | Plant response rating, Barnyardgrass [10, 17]: 15 | Plant response rating, Barnyardgrass ([10]; Flood, 31 g ai/ha): 0

COc1nn(-c2ccc(C(F)(F)F)cc2)nc1C(F)c1ccnc(C(F)(F)F)c1 (stereo not drawn) [Compound 80]
Barnyardgrass plant response rating [1, 11]: 30 | Barnyardgrass plant response rating [1, 12]: 70 | Plant response rating, Barnyardgrass [1, 13]: 20 | Plant response rating, Barnyardgrass [1, 14]: 70 | Crabgrass, Large plant response rating [2, 11]: 40 | Crabgrass, Large plant response rating [2, 12]: 80 | Plant response rating, Crabgrass, Large [2, 13]: 90 | Plant response rating, Crabgrass, Large [2, 14]: 100 | Foxtail, Giant plant response rating [3, 11]: 30 | Foxtail, Giant plant response rating [3, 12]: 80 | Plant response rating, Foxtail, Giant [3, 13]: 90 | Plant response rating, Foxtail, Giant [3, 14]: 100 | Morningglory plant response rating [4, 11]: 40 | Morningglory plant response rating [4, 12]: 90 | Plant response rating, Morningglory [4, 13]: 0 | Plant response rating, Morningglory [4, 14]: 60 | Pigweed plant response rating [5, 11]: 100 | Pigweed plant response rating [5, 12]: 100 | Plant response rating, Pigweed [5, 13]: 100 | Plant response rating, Pigweed [5, 14]: 100 | Velvetleaf plant response rating [6, 11]: 80 | Velvetleaf plant response rating [6, 12]: 100 | Plant response rating, Velvetleaf [6, 13]: 30 | Plant response rating, Velvetleaf [6, 14]: 70 | Wheat plant response rating [7, 11]: 20 | Wheat plant response rating [7, 12]: 40 | Plant response rating, Wheat [7, 13]: 0 | Plant response rating, Wheat [7, 14]: 40 | Corn plant response rating (corn (Zea mays); [11]): 20 | Corn plant response rating (corn (Zea mays); [12]): 20 | Plant response rating, Corn (corn (Zea mays); [13]): 0 | Plant response rating, Corn (corn (Zea mays); [14]): 10 | Plant response rating, Rice (rice (Oryza sativa); [16]): 0 | Plant response rating, Rice (rice (Oryza sativa); [17]): 0 | Plant response rating, Rice (rice (Oryza sativa); Flood, 31 g ai/ha): 0 | Plant response rating, Rice (rice (Oryza sativa); Flood, 62 g ai/ha): 0 | Plant response rating, Sedge, Umbrella [8, 16]: 0 | Plant response rating, Sedge, Umbrella [8, 17]: 70 | Plant response rating, Sedge, Umbrella ([8]; Flood, 31 g ai/ha): 0 | Plant response rating, Sedge, Umbrella ([8]; Flood, 62 g ai/ha): 0 | Plant response rating, Ducksalad [9, 16]: 0 | Plant response rating, Ducksalad [9, 17]: 0 | Plant response rating, Ducksalad ([9]; Flood, 31 g ai/ha): 0 | Plant response rating, Ducksalad ([9]; Flood, 62 g ai/ha): 0 | Plant response rating, Barnyardgrass [10, 16]: 0 | Plant response rating, Barnyardgrass [10, 17]: 20 | Plant response rating, Barnyardgrass ([10]; Flood, 31 g ai/ha): 0 | Plant response rating, Barnyardgrass ([10]; Flood, 62 g ai/ha): 0

Cc1nn(-c2ccc(C(F)(F)F)cc2)nc1Cn1cnc(C(F)(F)F)c1 [Compound 96]
Barnyardgrass plant response rating [1, 18]: 40 | Barnyardgrass plant response rating [1, 19]: 70 | Crabgrass, Large plant response rating [2, 18]: 70 | Crabgrass, Large plant response rating [2, 19]: 100 | Foxtail, Giant plant response rating [3, 18]: 60 | Foxtail, Giant plant response rating [3, 19]: 90 | Morningglory plant response rating [4, 18]: 80 | Morningglory plant response rating [4, 19]: 40 | Pigweed plant response rating [5, 18]: 90 | Pigweed plant response rating [5, 19]: 100 | Velvetleaf plant response rating [6, 18]: 70 | Velvetleaf plant response rating [6, 19]: 0 | Wheat plant response rating [7, 18]: 30 | Wheat plant response rating [7, 19]: 0 | Corn plant response rating (corn (Zea mays); [18]): 30 | Corn plant response rating (corn (Zea mays); [19]): 0 | Plant response rating, Rice (rice (Oryza sativa); [17]): 0 | Plant response rating, Rice (rice (Oryza sativa); Flood, 62 g ai/ha): 0 | Plant response rating, Sedge, Umbrella [8, 17]: 80 | Plant response rating, Sedge, Umbrella ([8]; Flood, 62 g ai/ha): 75 | Plant response rating, Ducksalad [9, 17]: 50 | Plant response rating, Ducksalad ([9]; Flood, 62 g ai/ha): 40 | Plant response rating, Barnyardgrass [10, 17]: 10 | Plant response rating, Barnyardgrass ([10]; Flood, 62 g ai/ha): 10
